Data set [1] addresses GPR84-Cys^352Ile Gαi2 fusion protein (Homo sapiens, UniProt Q9NQS5). The experiment in a line: [3H]G9543 radioligand binding (saturation and displacement), GPR84-Cys352Ile Gαi2 fusion protein. The conditions noted are these: displacement assay. Also noted: Cys352Ile Gαi2 (fusion partner, same polypeptide); expressed in transfected cells; host or cells: membranes of Flp-In T-REx 293 cells, doxycycline-induced. As for the experimental part: [^3H]G9543 is an analog of compounds 104, 107 and 161 with the same characteristic 2-(substituted-alkoxy)-9-substituted-6,7-dihydro-pyrimido[6,1-a]isoquinolin-4-one chemotype. […] Binding was initiated by the addition of membranes (5 µg of protein per tube). All assays were performed at 25 °C for 1 h before termination by the addition of ice-cold phosphate-buffered saline and vacuum filtration through GF/C glass filters using a 24-well Brandel cell harvester (Alpha Biotech, Glasgow, UK). Each reaction tube was washed three times with ice-cold PBS. The filters were allowed to dry for 2–3 h and then placed in 3 ml of Ultima Gold^TM XR. Radioactivity was quantified by liquid scintillation spectrometry. Specific binding was defined as the difference between binding detected in the presence and absence of 1 µM compound 104.
All data are presented as means ± SEM of at least three independent experiments. Data analysis and curve fitting was carried out using the GraphPad Prism software package version 5.0b (GraphPad, San Diego). For functional assays the concentration-response data were plotted on a log axis, with the untreated vehicle control plotted at 1 log unit lower than the lowest ligand concentration, and fitted to a three parameter sigmoidal curve with the Hill slope constrained to equal 1. In case of inhibition experiments with antagonists an equivalent analysis was followed to fit an inverse sigmoidal curve. To perform the statistical analysis of curve parameters, data from multiple experiments were fitted independently and resulting curve fit values were analysed with indicated tests. For radioligand binding data, saturation binding curves were generated by fitting the specific binding, which was obtained by subtracting non-specific from total binding, to a one site specific binding model that allows calculation of Kd values for the radioligand at wild type and mutant receptors. To determine affinity of unlabelled ligands, data obtained in displacement assays were fit to an inverse three parameter sigmoidal curve constrained by radioligand affinity and concentration to allow for Ki calculation.

The target in data set [2] is T1, human GPR84 (FLAG-hGPR84-eYFP) (Homo sapiens, UniProt Q9NQS5).
T1 construct: expressed in transfected cells
T1 sequence (Q9NQS5 whole entry): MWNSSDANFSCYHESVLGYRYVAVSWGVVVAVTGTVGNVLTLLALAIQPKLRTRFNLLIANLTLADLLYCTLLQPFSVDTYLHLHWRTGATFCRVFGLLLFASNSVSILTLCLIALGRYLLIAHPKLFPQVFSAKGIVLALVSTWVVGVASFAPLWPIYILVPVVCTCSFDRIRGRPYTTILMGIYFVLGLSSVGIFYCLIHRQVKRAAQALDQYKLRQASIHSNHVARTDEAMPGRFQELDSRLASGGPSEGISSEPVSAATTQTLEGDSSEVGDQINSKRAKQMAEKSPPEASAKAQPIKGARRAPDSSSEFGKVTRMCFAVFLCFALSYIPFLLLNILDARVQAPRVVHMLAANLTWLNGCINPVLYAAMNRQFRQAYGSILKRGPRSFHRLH
The experiment in a line: HTRF-based cAMP inhibition assay in Flp-In T-REx 293 cells expressing FLAG-hGPR84-eYFP. The class given is cell-based. The conditions noted are these: 100 μM of each MCFA. As for the experimental part:
For the assay cells were plated at 5000 cells/well in low-volume 384-well plates. The ability of agonists to inhibit 1 μM forskolin-induced cAMP production was assessed following a co-incubation for 30 min with agonist compounds.
A general note: Time-resolved FRET reads energy transfer from a long-lived donor to a nearby acceptor.

Data set [3] concerns the target T2, Arg^172Lys GPR84-Cys^352Ile Gαi2 fusion protein (Homo sapiens, UniProt Q9NQS5, R172K).
T2 construct: Cys352Ile Gαi2 (fusion partner, same polypeptide); expressed in transfected cells; host or cells: membranes of Flp-In T-REx 293 cells, doxycycline-induced
In words: [35S]GTPγS binding, Arg172Lys mutant fusion protein. The class given is biochemical. (In general: GTPγS is a poorly hydrolysed GTP analogue; its binding reports G protein activation.)

On the set-up of data set [4]: method as in PMID 17164373. The conditions noted are these: cited from earlier work.
The test system of data set [5] is GPR84-Gαi2 fusion protein. The experiment in a line: [35S]GTPγS binding, membranes expressing GPR84-Gαi2 fusion protein. The class given is biochemical, human. The conditions noted are these: wild type GPR84-Gαi2 fusion, pertussis toxin 24 h. An excerpt: The only previous study[3] designed to explore the mode of binding of ligands to GPR84 employed a fusion protein[31],[32] in which the G protein Gαi1 was linked in-frame to the C-terminal tail of GPR84. […] These studies indicate that following pertussis toxin treatment of cells expressing the GPR84-Cys^352Ile Gαi2 fusion protein all agonist-induced binding of [^35S]GTPγS reflects incorporation of nucleotide into the receptor-linked G protein α subunit.
Membranes were generated from Flp-In T-REx HEK293 cells treated with 100 ng/mL doxycycline to induce expression of the receptor construct of interest. Cells were washed with ice-cold phosphate-buffered saline, removed from dishes by scraping and centrifuged at 3000 rpm for 5 min at 4 °C. Pellets were resuspended in TE buffer (10 mM Tris-HCl, 0.1 mM EDTA; pH 7.5) containing a protease inhibitor mixture (Roche Applied Science, West Sussex, UK) and homogenized with a 5 ml hand-held homogenizer. This material was centrifuged at 1500 rpm for 5 min at 4 °C and the supernatant was further centrifuged at 50000 rpm for 45 min at 4 °C. The resulting pellet was resuspended in TE buffer and protein content was assessed using a BCA protein assay kit (Pierce, Fisher Scientific, Loughborough, UK).
Initially, 5 μg of generated membrane protein was pre-incubated for 15 min at 25 °C in assay buffer (20 mM HEPES, 5 mM MgCl2; 160 mM NaCl; 1 μM GDP; 0.05% fatty acid-free bovine serum albumin; pH 7.5) containing the indicated ligand concentrations. […] The reaction was then initiated with addition of [^35S]GTPγS (50 nCi per tube), and the reaction was terminated after 45 minutes incubation at 30 °C by rapid filtration through GF/C glass filters using a 24-well Brandel cell harvester (Alpha Biotech, Glasgow, UK). Unbound radioligand was removed from filters by three washes with ice-cold phosphate buffered saline (pH 7.4) and filters were dried for 2–3 h at room temperature. Dried filters were added to 3 mL of Ultima Gold^TM XR (PerkinElmer Life Sciences, Beaconsfield, UK) and [^35S]GTPγS binding was determined by liquid scintillation spectrometry.

The mark [6] stands for this setting: oral dosing to women of up to 1000 mg of indole-3-carbinol.

GPR84-Cys^352Ile Gαi2 fusion protein, sequence (Q9NQS5 2-396): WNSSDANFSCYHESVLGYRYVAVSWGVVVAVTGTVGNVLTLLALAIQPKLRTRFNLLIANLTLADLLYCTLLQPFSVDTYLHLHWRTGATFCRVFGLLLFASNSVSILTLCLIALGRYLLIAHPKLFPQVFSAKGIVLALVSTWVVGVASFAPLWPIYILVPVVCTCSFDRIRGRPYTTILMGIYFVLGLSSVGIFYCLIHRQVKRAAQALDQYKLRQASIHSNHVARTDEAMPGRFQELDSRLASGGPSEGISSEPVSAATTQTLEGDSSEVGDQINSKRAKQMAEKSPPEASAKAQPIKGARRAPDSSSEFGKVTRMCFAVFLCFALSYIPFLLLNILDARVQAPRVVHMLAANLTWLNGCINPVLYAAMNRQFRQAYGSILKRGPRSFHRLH
T2 sequence (Q9NQS5 2-396 R172K): as the sequence (Q9NQS5 2-396) above, with R171K counted along it

Take `CCCCCCCCCC(=O)O` [C10, decanoic acid]: the “ability to compete with [3H]G9543 binding” value in data set [1] is listed as “neither C10 nor DIM was able to compete effectively”. For the same molecule, the “capacity to inhibit forskolin-amplified levels of cAMP, compared among MCFAs of chain length C9-C14” value in data set [2] was “produced the largest effect”. For the same molecule, the “agonist response at Arg172Lys mutant” value in data set [3] is reported as “eliminated response”.

Consider `c1ccc2c(Cc3c[nH]c4ccccc34)c[nH]c2c1` [DIM, 3,-3′-diindolylmethane], for which the “ability to compete with [3H]G9543 binding” value in data set [1] is on record as “neither C10 nor DIM was able to compete effectively”. In data set [4] (after oral indole-3-carbinol), the “clearance from plasma” value is “rapidly cleared”. Moreover, in data set [4] (setting [6]), the “peak plasma level of DIM” value is 500–600 ng/ml and approximately 2 μM; the “time to peak plasma level of DIM” value was at most 2 h. For the same molecule, in data set [5], the “response after pertussis toxin pre-treatment” value is reported as “all but eliminated”. For the same molecule, in data set [3], the “agonist response at Arg172Lys mutant” value is given as “without affecting response”.

Values taken from article PMC5738391, “Three classes of ligands each bind to distinct sites on the orphan G protein-coupled receptor GPR84” (Scientific Reports, 2017).
